Assay: Stability study of triheptanoin on storage (acid value, diester impurities, purity by GC and/or HPLC)
Format: physicochemical
Experimental: The stability data of the present invention at different stability condition(s) from initial to up to 6 (six) months is described below in Table-I: As shown in Table-I, two batches (Example 16 & Example 17) of triheptanoin prepared by the present method with acid values of […] about 0.2 mg KOH/gm were studied for stability. The samples were kept at 25° C./60% RH, 40° C./75% RH for up to 6 months and at 50° C. for up to 3 months. During the stability study, the inventors of the present invention have focused on % of 1,2-Diester Impurity, % of 1,3-Diester Impurity and purity of triheptanoin.

[1] = 25° C./60% RH, 3 M, listed as Example 17
[2] = 25° C./60% RH, 6 M, listed as Example 17
[3] = 25° C./60% RH, 40° C./75% RH up to 6 months, 50° C. up to 3 months, acid value greater than about 0.2 mg KOH/gm
[4] = 40° C./75% RH, 1 M, listed as Example 17
[5] = 40° C./75% RH, 2 M, listed as Example 17
[6] = 40° C./75% RH, 3 M, listed as Example 17
[7] = 40° C./75% RH, 6 M, listed as Example 17
[8] = 50° C., 1 M, listed as Example 17
[9] = 50° C., 2 M, listed as Example 17
[10] = 50° C., 3 M, listed as Example 17

1,2 Diester Impurity (NMT 0.05%) (25° C./60% RH, 1 M): 0.004% | 1,3 Diester Impurity (NMT 0.05%) (25° C./60% RH, 1 M): 0.002% | Acid value (25° C./60% RH, 1 M): 0.24 mg KOH/gm | Triheptanoin purity (25° C./60% RH, 1 M): 99.83% | Triheptanoin purity (25° C./60% RH, 1 M, listed as Example 17): 99.82% | 1,2 Diester Impurity (NMT 0.05%) (25° C./60% RH, 3 M): 0.007% | 1,3 Diester Impurity (NMT 0.05%) (25° C./60% RH, 3 M): 0.002% | Acid value (25° C./60% RH, 3 M): 0.23 mg KOH/gm | Triheptanoin purity (25° C./60% RH, 3 M): 99.82% | 1,2 Diester Impurity (NMT 0.05%) [1]: 0.004% | 1,3 Diester Impurity (NMT 0.05%) [1]: 0.003% | Acid value [1]: 0.22 mg KOH/gm | Triheptanoin purity [1]: 99.84% | 1,2 Diester Impurity (NMT 0.05%) (25° C./60% RH, 6 M): 0.005% | 1,3 Diester Impurity (NMT 0.05%) (25° C./60% RH, 6 M): 0.009% | Acid value (25° C./60% RH, 6 M): 0.27 mg KOH/gm | Triheptanoin purity (25° C./60% RH, 6 M): 99.81% | 1,2 Diester Impurity (NMT 0.05%) [2]: 0.003% | 1,3 Diester Impurity (NMT 0.05%) [2]: 0.004% | Triheptanoin purity [2]: 99.82% | 1,2-Diester and 1,3-Diester impurities during the storage [3]: not increasing | assay potency of triheptanoin during the storage [3]: maintained | purity of triheptanoin during storage as measured by GC and/or HPLC [3]: greater than 99.7% | 1,2 Diester Impurity (NMT 0.05%) (40° C./75% RH, 1 M): 0.005% | 1,3 Diester Impurity (NMT 0.05%) (40° C./75% RH, 1 M): 0.003% | Acid value (40° C./75% RH, 1 M): 0.24 mg KOH/gm | Triheptanoin purity (40° C./75% RH, 1 M): 99.83% | 1,2 Diester Impurity (NMT 0.05%) [4]: 0.004% | 1,3 Diester Impurity (NMT 0.05%) [4]: 0.004% | Triheptanoin purity [4]: 99.82% | 1,2 Diester Impurity (NMT 0.05%) (40° C./75% RH, 2 M): 0.008% | 1,3 Diester Impurity (NMT 0.05%) (40° C./75% RH, 2 M): 0.005% | Acid value (40° C./75% RH, 2 M): 0.24 mg KOH/gm | Triheptanoin purity (40° C./75% RH, 2 M): 99.78% | 1,2 Diester Impurity (NMT 0.05%) [5]: 0.006% | 1,3 Diester Impurity (NMT 0.05%) [5]: 0.003% | Acid value [5]: 0.25 mg KOH/gm | Triheptanoin purity [5]: 99.81% | 1,2 Diester Impurity (NMT 0.05%) (40° C./75% RH, 3 M): 0.013% | 1,3 Diester Impurity (NMT 0.05%) (40° C./75% RH, 3 M): 0.007% | Acid value (40° C./75% RH, 3 M): 0.24 mg KOH/gm | Triheptanoin purity (40° C./75% RH, 3 M): 99.82% | 1,2 Diester Impurity (NMT 0.05%) [6]: 0.006% | 1,3 Diester Impurity (NMT 0.05%) [6]: 0.005% | Acid value [6]: 0.23 mg KOH/gm | 1,2 Diester Impurity (NMT 0.05%) (40° C./75% RH, 6 M): 0.018% | 1,3 Diester Impurity (NMT 0.05%) (40° C./75% RH, 6 M): 0.015% | Acid value (40° C./75% RH, 6 M): 0.26 mg KOH/gm | Triheptanoin purity (40° C./75% RH, 6 M): 99.74% | 1,2 Diester Impurity (NMT 0.05%) [7]: 0.011% | 1,3 Diester Impurity (NMT 0.05%) [7]: 0.014% | Acid value [7]: 0.29 mg KOH/gm | Triheptanoin purity [7]: 99.81% | 1,2 Diester Impurity (NMT 0.05%) (50° C., 1 M): 0.008% | 1,3 Diester Impurity (NMT 0.05%) (50° C., 1 M): 0.005% | Acid value (50° C., 1 M): 0.24 mg KOH/gm | Triheptanoin purity (50° C., 1 M): 99.83% | 1,2 Diester Impurity (NMT 0.05%) [8]: 0.005% | 1,3 Diester Impurity (NMT 0.05%) [8]: 0.004% | Triheptanoin purity [8]: 99.81% | 1,2 Diester Impurity (NMT 0.05%) (50° C., 2 M): 0.014% | 1,3 Diester Impurity (NMT 0.05%) (50° C., 2 M): 0.010% | Acid value (50° C., 2 M): 0.24 mg KOH/gm | Triheptanoin purity (50° C., 2 M): 99.76% | 1,2 Diester Impurity (NMT 0.05%) [9]: 0.008% | 1,3 Diester Impurity (NMT 0.05%) [9]: 0.007% | Acid value [9]: 0.25 mg KOH/gm | Triheptanoin purity [9]: 99.78% | 1,2 Diester Impurity (NMT 0.05%) (50° C., 3 M): 0.014% | 1,3 Diester Impurity (NMT 0.05%) (50° C., 3 M): 0.012% | Acid value (50° C., 3 M): 0.25 mg KOH/gm | Triheptanoin purity (50° C., 3 M): 99.80% | 1,2 Diester Impurity (NMT 0.05%) [10]: 0.010% | 1,3 Diester Impurity (NMT 0.05%) [10]: 0.010% | Acid value [10]: 0.24 mg KOH/gm | Triheptanoin purity [10]: 99.83% | 1,2 Diester Impurity (NMT 0.05%) (Initial): 0.004% | 1,3 Diester Impurity (NMT 0.05%) (Initial): 0.002% | Acid value (Initial): 0.21 mg KOH/gm | Triheptanoin purity (Initial): 99.76% | 1,2 Diester Impurity (NMT 0.05%) (Initial, listed as Example 17): 0.003% | Triheptanoin purity (Initial, listed as Example 17): 99.77%
SMILES: CCCCCCC(=O)OCC(COC(=O)CCCCCC)OC(=O)CCCCCC [Example 16, heptanoic acid, 1,1′,1″-(1,2,3 propanetriyl) ester]

From patent publication US20250026708A1, “PROCESS FOR PREPARATION OF TRIHEPTANOIN” (Navinta, LLC, priority 2023, published 2025)
